Laboratory results published in patent US10947188B2, “Small molecule ferroptosis inducers” (THE TRUSTEES OF COLUMBIA UNIVERSITY IN THE CITY OF NEW YORK, priority 2016, dated 2021).
pEC50: −log10 of the molar value.

Test system: BJeLR
Test: Modulatory profiling: Alamar Blue viability, lethal compound cotreated with death modulator (EC50, AUC); for AUC, modulator BJ.3MA: reference of the scale not given here; for AUC, modulator BJ.ALLN: reference of the scale not given here; for AUC, modulator BJ.Boc D: reference of the scale not given here; for AUC, modulator BJ.CHX: reference of the scale not given here; for AUC, modulator BJ.Co2+: reference of the scale not given here; for AUC, modulator BJ.DPQ: reference of the scale not given here; for AUC, modulator BJ.Gd3+: reference of the scale not given here; for AUC, modulator BJ.LNAME: reference of the scale not given here; for AUC, modulator BJ.NAD+: reference of the scale not given here; for AUC, modulator BJ.NMMA: reference of the scale not given here; for AUC, modulator BJ.Nec-1: reference of the scale not given here; for AUC, modulator BJ.Pepstatin: reference of the scale not given here; for AUC, modulator BJ.TLCK: reference of the scale not given here
Format: cell-based, human
Set-up: AUC, modulator BJ.Gd3+ / AUC, modulator BJ.LNAME / AUC, modulator BJ.Lmin / AUC, modulator BJ.3MA / AUC, modulator BJ.ALLN / AUC, modulator BJ.Boc D / AUC, modulator BJ.CHX / AUC, modulator BJ.Co2+ / AUC, modulator BJ.Nec-1 / AUC, modulator BJ.Pepstatin / AUC, modulator BJ.TLCK / AUC, modulator BJ.atoc / AUC, modulator BJ.trolox / AUC, modulator BJ.zVAD: unit not given beside the values
Details: for AUC, modulator BJ.3MA / AUC, modulator BJ.ALLN / AUC, modulator BJ.Boc D / AUC, modulator BJ.CHX / AUC, modulator BJ.Co2+ / AUC, modulator BJ.DPQ / AUC, modulator BJ.Gd3+ / AUC, modulator BJ.LNAME / AUC, modulator BJ.Lmin/NAD+ / AUC, modulator BJ.Lmin / AUC, modulator BJ.NAD+ / AUC, modulator BJ.NMMA / AUC, modulator BJ.Nec-1 / AUC, modulator BJ.Pepstatin / AUC, modulator BJ.TLCK / AUC, modulator BJ.atoc / AUC, modulator BJ.trolox / AUC, modulator BJ.zVAD: BJeLR cells, modulatory profile value (AUC); for AUC, modulator BJ.3MA: lethal compound cotreated with modulator 3MA; for AUC, modulator BJ.ALLN: lethal compound cotreated with modulator ALLN; for AUC, modulator BJ.Boc D: lethal compound cotreated with modulator Boc D; for AUC, modulator BJ.CHX: lethal compound cotreated with modulator CHX; for AUC, modulator BJ.Co2+: lethal compound cotreated with modulator Co2+; for AUC, modulator BJ.DPQ: lethal compound cotreated with modulator DPQ; for AUC, modulator BJ.Gd3+: lethal compound cotreated with modulator Gd3+; for AUC, modulator BJ.LNAME: lethal compound cotreated with modulator LNAME; for AUC, modulator BJ.Lmin/NAD+: lethal compound cotreated with modulator Lmin/NAD+; for AUC, modulator BJ.Lmin: lethal compound cotreated with modulator Lmin; for AUC, modulator BJ.NAD+: lethal compound cotreated with modulator NAD+; for AUC, modulator BJ.NMMA: lethal compound cotreated with modulator NMMA; for AUC, modulator BJ.Nec-1: lethal compound cotreated with modulator Nec-1; for AUC, modulator BJ.Pepstatin: lethal compound cotreated with modulator Pepstatin; for AUC, modulator BJ.TLCK: lethal compound cotreated with modulator TLCK; for AUC, modulator BJ.atoc: lethal compound cotreated with modulator atoc; for AUC, modulator BJ.trolox: lethal compound cotreated with modulator trolox; for AUC, modulator BJ.zVAD: lethal compound cotreated with modulator zVAD; for pEC50: Homo sapiens, BJeLR, 48 h
[1] = cotreated with antioxidant Trolox
[2] = cotreated with antioxidant atoc
[3] = cotreated with iron-chelator Lmim

Compound	AUC, modulator BJ.3MA	AUC, modulator BJ.ALLN	AUC, modulator BJ.Boc D	AUC, modulator BJ.CHX	AUC, modulator BJ.Co2+	AUC, modulator BJ.DPQ	AUC, modulator BJ.Gd3+	AUC, modulator BJ.LNAME	AUC, modulator BJ.Lmin/NAD+	AUC, modulator BJ.Lmin	AUC, modulator BJ.NAD+	AUC, modulator BJ.NMMA	AUC, modulator BJ.Nec-1	AUC, modulator BJ.Pepstatin	AUC, modulator BJ.TLCK	AUC, modulator BJ.atoc	AUC, modulator BJ.trolox	AUC, modulator BJ.zVAD	also measured
O=c1c(Cl)c(Cl)cnn1-c1ccc(Cl)c(C(F)(F)F)c1 [CIL25]	0.02374	−0.07209	−0.009758	−0.0273	−0.003244	0.001852	0.04216	−0.004428	0.09246	0.01628	0.06106	0.01683	0.03297	−0.00415	−0.05889	0.02909	−0.001029	0.03879	
CC1CC2=C(CC1CNCCCN(C)C)C(C)(C)CCC2 (stereo not shown) [CIL26]	0.05124	−0.0584	−0.05574	−0.001733	0.04871	0.01829	0.004541	−0.03322	0.09111	−0.0139	0.005678	0.006781	−0.03974	0.02268	−0.06133	0.05008	0.03147	−0.003259	
Cc1ccc(O)c(/N=C/C=C/c2cccc(Br)c2)c1 [CIL27]	0.0403	−0.06604	−0.08049	0.1399	0.05931	0.0171	−0.02406	−0.04381	0.02365	0.01472	−0.01357	0.009474	−0.05452	0.006509	−0.03065	0.002404	0.0004949	−0.003575	
CC(C)=CCCC1=CCC(CNCCCN(C)C)C(C)C1 (stereo not shown) [CIL28]	0.0433	−0.02065	−0.02549	−0.01119	0.03417	0.009235	−0.07741	−0.04858	−0.02578	−0.053	0.06231	0.000264	0.005737	0.06166	−0.09417	0.05295	0.06039	0.006234	
COC(C)(C)C#CC(=O)c1cccc2ccccc12 [CIL34]	0.07701	−0.04374	−0.02462	0.1215	0.07311	0.03951	−0.032	−0.01631	0.04257	−0.0234	−0.004372	0.03326	−0.03852	0.04418	−0.1073	0.05781	0.007029	0.005997	
CN(C)CCCOS(=O)(=O)c1ccc(N2CCC(c3ccc(Cl)cc3)=N2)cc1 [CIL40]	0.1131	−0.02592	−0.05607	−0.1423	0.03348	0.01887	−0.004738	0.002197	−0.06069	−0.05273	0.005587	0.05461	0.02442	−0.01642	−0.05358	0.05022	0.03943	0.007977	
N/C(=N\OC(=O)C12CC3CC(CC(C3)C1)C2)c1ccccc1 [CIL41]	0.117	−0.08211	−0.06374	−0.0571	−0.02378	0.02161	−0.006767	0.00307	0.1504	0.2032	−0.0198	0.04219	0.09368	−0.03128	−0.02463	0.2729	0.1871	0.03607	pEC50 (DMSO): 5.50; pEC50 (cotreated with Lmim_NAD): 4.65; pEC50 [1]: 4.63; pEC50 [2]: 4.44; pEC50 [3]: 4.65
O=P(Oc1ccccc1)(Oc1ccccc1)O[C@@H]1C=CS(=O)(=O)C1 [CIL44]	0.05756	−0.0588	−0.03963	0.1553	0.02387	0.05604	0.005556	0.008981	−0.04975	0.03065	−0.04167	0.02894	−0.01119	0.002455	−0.03963	0.009119	−0.03989	−0.01682	
CCc1ccc(/C=C2/SC(=O)N(CCC(C)NCCCN3CCOCC3)C2=O)cc1 (stereo not shown) [CIL46]	0.1884	−0.01374	−0.005903	0.1598	−0.1389	0.03979	−0.05606	−0.02185	0.1825	0.2583	−0.02371	0.03363	0.08455	−0.01313	−0.09715	0.1051	0.04647	−0.05153	
CC1=CC(C)(C)Nc2ccc(OC(=O)c3cccnc3)cc21 [CIL47]	0.1505	−0.02628	0.05397	−0.0269	−0.1379	0.06122	−0.02875	−0.02479	−0.01437	−0.01696	−0.06356	0.04023	−0.02203	0.05454	−0.03768	0.03519	−0.02806	−0.01497	
COc1ccc(-n2nnnc2S(=O)(=O)CC(=O)N2CCCCC2)cc1 [CIL48]	0.09789	−0.1008	−0.02225	0.1619	0.05392	0.01112	−0.004307	−0.01039	0.06326	−0.02664	−0.04246	0.01412	−0.04434	−0.01271	−0.01339	0.01164	−0.03407	−0.01807	
CCCCS(=O)(=O)/C=C\C=C/S(=O)(=O)CCCC [CIL49]	0.04504	−0.05864	−0.0257	0.1692	0.009716	−0.002084	−0.006048	−0.007857	0.07067	0.03689	0.02344	0.006898	0.001972	0.02852	−0.03549	−0.008324	−0.02337	−0.001762	
O=C(CCl)N(c1ccc(Cl)cc1)c1c[nH]c2ccccc12 [CIL75]	0.04653	0.01301	0.03092	−0.009103	0.2049	−1.616E−05	0.0459	0.01184	0.2292	0.146	−0.01643	−0.01449	0.1883	0.07275	0.2311				pEC50 (DMSO): 7.22; pEC50 (cotreated with Lmim_NAD): 6.50; pEC50 [1]: 5.96; pEC50 [2]: 5.98; pEC50 [3]: 6.47
CC[C@@]1(O)C(=O)OCc2c1cc1n(c2=O)Cc2cc3ccccc3nc2-1 [Camptothecin]	−0.02027	0.03368	0.07983	0.1233	0.02899	−0.01119	−0.007898	0.003206	0.1164	0.02947	0.112	−0.006852	0.02477	0.01408	0.02306	0.01158	0.04874	0.08241	
